Data taken from ChEMBL document CHEMBL3112494, “Heterocyclic core analogs of a direct thrombin inhibitor” (Bioorg Med Chem Lett, 2014).

What was measured:
Cytochrome P450 2C9 = Cytochrome P450 2C9 (Homo sapiens, UniProt P11712); test: Inhibition of CYP2C9 (unknown origin) up to 50 uM; type: ADME
Coagulation factor X = Coagulation factor X (Homo sapiens, UniProt P00742); test: Inhibition of factor 10a (unknown origin)
Cytochrome P450 2D6 = Cytochrome P450 2D6 (Homo sapiens, UniProt P10635); test: Inhibition of CYP2D6 (unknown origin) up to 50 uM; type: ADME
Coagulation factor XII = molecular target: T1, Coagulation factor XII (Homo sapiens, UniProt P00748); test: Inhibition of factor 12a (unknown origin)
T1 sequence (P00748 whole entry): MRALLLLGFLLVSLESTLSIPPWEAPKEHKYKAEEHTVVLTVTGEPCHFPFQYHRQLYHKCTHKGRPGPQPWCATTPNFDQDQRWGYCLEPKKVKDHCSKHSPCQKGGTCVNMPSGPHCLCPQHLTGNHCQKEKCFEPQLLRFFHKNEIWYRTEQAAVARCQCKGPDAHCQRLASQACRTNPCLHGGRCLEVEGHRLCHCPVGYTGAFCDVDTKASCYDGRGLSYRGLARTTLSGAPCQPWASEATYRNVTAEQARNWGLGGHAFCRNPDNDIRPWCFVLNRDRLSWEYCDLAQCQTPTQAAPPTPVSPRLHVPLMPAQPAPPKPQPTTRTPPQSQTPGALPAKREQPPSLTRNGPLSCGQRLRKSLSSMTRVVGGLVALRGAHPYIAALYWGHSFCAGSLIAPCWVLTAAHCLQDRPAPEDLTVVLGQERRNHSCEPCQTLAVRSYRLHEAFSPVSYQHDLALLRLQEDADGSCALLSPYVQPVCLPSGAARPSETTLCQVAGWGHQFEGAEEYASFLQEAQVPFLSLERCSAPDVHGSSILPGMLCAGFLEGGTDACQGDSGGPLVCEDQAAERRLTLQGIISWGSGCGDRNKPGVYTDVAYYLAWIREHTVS

Trypsin = Trypsin (Homo sapiens, UniProt P07477+P07478+P35030); test: Inhibition of trypsin (unknown origin); type: protein assay
Cytochrome P450 3A4 = Cytochrome P450 3A4 (Homo sapiens, UniProt P08684); test: Inhibition of CYP3A4 (unknown origin) up to 50 uM; type: ADME
Coagulation factor VII = molecular target: T2, Coagulation factor VII (Homo sapiens, UniProt P08709); test: Inhibition of factor 7a (unknown origin)
T2 sequence (P08709 whole entry): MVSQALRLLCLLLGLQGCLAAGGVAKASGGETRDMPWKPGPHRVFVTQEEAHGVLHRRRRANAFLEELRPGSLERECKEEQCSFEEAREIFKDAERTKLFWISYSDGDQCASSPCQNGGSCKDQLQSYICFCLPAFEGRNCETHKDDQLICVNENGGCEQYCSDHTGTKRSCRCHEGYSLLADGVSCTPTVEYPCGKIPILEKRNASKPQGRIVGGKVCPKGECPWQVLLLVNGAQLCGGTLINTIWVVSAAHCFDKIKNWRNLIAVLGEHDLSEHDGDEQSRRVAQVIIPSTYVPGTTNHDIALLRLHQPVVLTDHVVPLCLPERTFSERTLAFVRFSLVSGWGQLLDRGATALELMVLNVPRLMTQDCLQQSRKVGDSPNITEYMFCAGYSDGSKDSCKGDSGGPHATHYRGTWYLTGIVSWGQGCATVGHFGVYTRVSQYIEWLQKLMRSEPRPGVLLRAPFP

[1] = Half life in dog at 0.3 mg/kg, iv; type: ADME, organism-based, Canis lupus familiaris; design: dose 0.3 mg/kg, route intravenous; conditions: in vivo
[2] = AUC in dog at 0.3 mg/kg, iv; type: ADME, organism-based, Canis lupus familiaris; design: dose 0.3 mg/kg, route intravenous; conditions: plasma
[3] = Metabolic stability in dog hepatocytes assessed as compound remaining after 90 mins; type: ADME, cell-based, Canis lupus familiaris, Hepatocyte; conditions: read-out: Stability
[4] = Volume of distribution in dog at 0.3 mg/kg, iv; type: ADME, organism-based, Canis lupus familiaris; design: dose 0.3 mg/kg, route intravenous; conditions: in vivo
[5] = Clearance in dog at 0.3 mg/kg, iv; type: ADME, organism-based, Canis lupus familiaris; design: dose 0.3 mg/kg, route intravenous; conditions: in vivo
Coagulation factor IX = Coagulation factor IX (Homo sapiens, UniProt P00740); test: Inhibition of factor 9a (unknown origin)
Prothrombin = Prothrombin (Homo sapiens, UniProt P00734); test: Inhibition of thrombin (unknown origin)

Sequence of Cytochrome P450 2D6 (P10635 whole entry): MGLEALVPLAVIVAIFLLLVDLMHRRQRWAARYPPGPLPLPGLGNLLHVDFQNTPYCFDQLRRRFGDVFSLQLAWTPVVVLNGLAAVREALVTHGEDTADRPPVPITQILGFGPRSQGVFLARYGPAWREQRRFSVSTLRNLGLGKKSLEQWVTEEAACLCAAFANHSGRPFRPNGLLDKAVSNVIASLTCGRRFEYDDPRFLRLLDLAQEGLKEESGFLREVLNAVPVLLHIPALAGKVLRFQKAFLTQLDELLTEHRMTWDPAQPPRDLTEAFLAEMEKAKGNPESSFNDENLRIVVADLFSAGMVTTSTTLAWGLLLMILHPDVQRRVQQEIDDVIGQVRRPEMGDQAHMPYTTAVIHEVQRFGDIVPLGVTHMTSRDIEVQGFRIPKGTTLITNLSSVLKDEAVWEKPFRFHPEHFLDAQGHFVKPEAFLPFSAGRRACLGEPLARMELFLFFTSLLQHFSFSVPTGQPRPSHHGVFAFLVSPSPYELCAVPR
Sequence of Cytochrome P450 3A4 (P08684 whole entry): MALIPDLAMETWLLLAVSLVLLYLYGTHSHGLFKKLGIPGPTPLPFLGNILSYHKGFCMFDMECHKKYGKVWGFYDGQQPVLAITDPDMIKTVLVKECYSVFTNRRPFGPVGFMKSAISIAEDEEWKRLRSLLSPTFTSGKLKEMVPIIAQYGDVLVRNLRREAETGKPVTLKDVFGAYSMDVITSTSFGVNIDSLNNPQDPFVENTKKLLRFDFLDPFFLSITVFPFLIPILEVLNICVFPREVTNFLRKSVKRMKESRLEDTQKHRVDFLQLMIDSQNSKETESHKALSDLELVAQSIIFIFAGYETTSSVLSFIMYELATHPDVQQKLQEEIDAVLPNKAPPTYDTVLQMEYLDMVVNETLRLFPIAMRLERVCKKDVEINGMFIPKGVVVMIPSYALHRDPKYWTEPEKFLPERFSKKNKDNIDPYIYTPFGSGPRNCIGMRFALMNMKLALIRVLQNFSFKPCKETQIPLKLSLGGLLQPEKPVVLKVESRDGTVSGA
Sequence of Cytochrome P450 2C9 (P11712 whole entry): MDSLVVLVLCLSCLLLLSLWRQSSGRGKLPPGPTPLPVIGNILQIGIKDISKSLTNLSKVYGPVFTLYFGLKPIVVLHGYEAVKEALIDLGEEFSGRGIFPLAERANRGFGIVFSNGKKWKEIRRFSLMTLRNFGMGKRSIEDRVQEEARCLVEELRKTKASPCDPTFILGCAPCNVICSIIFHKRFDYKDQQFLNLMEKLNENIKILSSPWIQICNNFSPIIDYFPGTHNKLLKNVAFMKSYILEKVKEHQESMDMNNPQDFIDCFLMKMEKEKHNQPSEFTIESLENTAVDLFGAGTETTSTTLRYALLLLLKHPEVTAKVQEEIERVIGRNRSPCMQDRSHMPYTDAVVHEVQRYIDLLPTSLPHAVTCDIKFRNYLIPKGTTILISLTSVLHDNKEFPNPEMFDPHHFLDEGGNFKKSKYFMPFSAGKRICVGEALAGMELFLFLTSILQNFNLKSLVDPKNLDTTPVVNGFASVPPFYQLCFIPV
Sequence of Coagulation factor X (P00742 41-179 limits assumed): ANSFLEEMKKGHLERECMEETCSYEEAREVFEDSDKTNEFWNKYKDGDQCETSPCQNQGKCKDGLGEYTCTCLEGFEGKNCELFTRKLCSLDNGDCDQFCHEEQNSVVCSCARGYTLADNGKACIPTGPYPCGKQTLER
Sequence of Coagulation factor X (P00742 235-488 limits assumed): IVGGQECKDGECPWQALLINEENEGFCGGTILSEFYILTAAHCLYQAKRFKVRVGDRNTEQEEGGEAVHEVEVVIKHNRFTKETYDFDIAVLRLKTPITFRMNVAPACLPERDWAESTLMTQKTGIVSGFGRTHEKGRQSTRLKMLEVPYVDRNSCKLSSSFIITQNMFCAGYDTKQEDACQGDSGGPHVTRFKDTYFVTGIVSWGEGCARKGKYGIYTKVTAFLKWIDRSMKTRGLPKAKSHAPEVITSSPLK
Sequence of Coagulation factor IX (P00740 47-191 limits assumed): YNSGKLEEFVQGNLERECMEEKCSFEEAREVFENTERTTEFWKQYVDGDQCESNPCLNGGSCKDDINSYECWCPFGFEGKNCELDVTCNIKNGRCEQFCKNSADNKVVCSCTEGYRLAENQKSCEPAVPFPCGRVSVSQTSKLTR
Sequence of Coagulation factor IX (P00740 227-461 limits assumed): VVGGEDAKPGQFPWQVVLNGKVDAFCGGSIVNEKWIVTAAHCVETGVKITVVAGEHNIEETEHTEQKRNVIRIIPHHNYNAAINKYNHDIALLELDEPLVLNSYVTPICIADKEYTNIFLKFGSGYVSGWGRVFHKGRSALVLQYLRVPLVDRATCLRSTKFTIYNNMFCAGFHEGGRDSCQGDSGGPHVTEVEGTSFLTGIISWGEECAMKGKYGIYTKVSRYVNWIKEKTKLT

SMILES | inhibition (INH) (Cytochrome P450 2C9) | Ki (Coagulation factor X) [µM] | inhibition (INH) (Cytochrome P450 2D6) | Ki (Coagulation factor XII) [µM] | Ki (Trypsin) [µM] | inhibition (INH) (Cytochrome P450 3A4) | Ki (Coagulation factor VII) [µM] | half-life [1] [h] | AUC [2] [µM·h] | remaining at 1.5 h [3] [%] | Vd [4] [L/kg] | clearance [5] [mL/min/kg] | Ki (Coagulation factor IX) [µM] | Ki (Prothrombin) [µM]
CC(C)(C)[C@@H](O)C(=O)N1CC[S+]([O-])C[C@H]1C(=O)NCc1cc(Cl)ccc1CN.O=C(O)C(F)(F)F (stereo partly specified) | Not Active |  | Not Active |  |  | Not Active |  |  |  |  |  |  |  | 
CC(C)(C)[C@@H](O)C(=O)N1CCOC[C@H]1C(=O)NCc1cc(Cl)ccc1CN.O=C(O)C(F)(F)F | Not Active | 3.9 | Not Active | > 15 | 15 | Not Active | > 15 |  |  |  |  |  | 15 | 
CN1CCN(C(=O)[C@H](O)C(C)(C)C)[C@H](C(=O)NCc2cc(Cl)ccc2CN)C1.O=C(O)C(F)(F)F | Not Active | 3.7 | Not Active | > 15 | 15 | Not Active | > 15 |  |  |  |  |  |  | 
CC(C)(C)[C@@H](O)C(=O)N1CCNC[C@H]1C(=O)NCc1cc(Cl)ccc1CN.O=C(O)C(F)(F)F | Not Active | 4.4 | Not Active | > 15 | 15 | Not Active | > 15 |  |  |  |  |  | 15 | 

Next, values leading:

inhibition (INH) (Cytochrome P450 2C9) | Ki (Coagulation factor X) [µM] | inhibition (INH) (Cytochrome P450 2D6) | Ki (Coagulation factor XII) [µM] | Ki (Trypsin) [µM] | inhibition (INH) (Cytochrome P450 3A4) | Ki (Coagulation factor VII) [µM] | half-life [1] [h] | AUC [2] [µM·h] | remaining at 1.5 h [3] [%] | Vd [4] [L/kg] | clearance [5] [mL/min/kg] | Ki (Coagulation factor IX) [µM] | Ki (Prothrombin) [µM] | SMILES
Not Active | 3.1 | Not Active | > 15 | 15 | Not Active | > 15 |  |  |  |  |  |  |  | CC(C)(C)[C@@H](O)C(=O)N1CCS(=O)(=O)C[C@H]1C(=O)NCc1cc(Cl)ccc1CN.O=C(O)C(F)(F)F
Not Active | 0.9 | Not Active | > 15 | 9.4 | Not Active | > 15 | 2.7 | 1 | 76 | 2.3 | 12.8 |  |  | CC(C)(C)[C@@H](O)C(=O)N1CCSC[C@H]1C(=O)NCc1cc(Cl)ccc1CN.O=C(O)C(F)(F)F
Not Active | 1.8 | Not Active | > 15 | 10.6 | Not Active | > 15 |  |  |  |  |  |  |  | CC(C)(C)[C@@H](O)C(=O)N1CCCC[C@H]1C(=O)NCc1cc(Cl)ccc1CN.O=C(O)C(F)(F)F
Not Active | 1.4 | Not Active | > 15 | 5.6 | Not Active | > 15 | 6.8 | 10 | 93 | 1.9 | 3.5 | > 3 | 0.0015 | CC(C)(C)[C@@H](O)C(=O)N1CCC[C@H]1C(=O)NCc1cc(Cl)ccc1CN.O=C(O)C(F)(F)F
